Test results: patent US7273884B2, “Method of treating tremors” (Eisai, Inc., priority 2002, dated 2007)
Read-outs that look alike come from different tables or passages of the source.

Columns and labels:
[1] = general clinical practice, first line therapy; cited from earlier work
NMDA receptor = conditions: noncompetitive NMDA channel blocker; cited from earlier work
[2] = Zonisamide treatment of tremor patients at an outpatient neurology clinic; format: in vivo, human
Description: Zonisamide was used in treatment of patients at an outpatient neurology clinic, which provided the following results. […] For intractable essential tremor, 10 patients (age range: 46 to 82) were identified who were either intolerant to, or failed on, primidone or propranolol therapy. The dosage of zonisamide to these patients was 100 mg to a maximum of 200 mg once daily. The study dose was continued for at least 12 weeks unless discontinued earlier due to side effects.

[3] = kindled rat; cited from earlier work
[4] = cats, electrical stimulation of the visual cortex; cited from earlier work
[5] = rats, cortical tungstic acid gel; cited from earlier work
[6] = cats, cortical freezing; cited from earlier work
[7] = test system: voltage-gated sodium channels; conditions: in vitro; cited from earlier work
T-type Ca2+ currents = conditions: in vitro; cited from earlier work
[8] = test system: GABA/benzodiazepine receptor ionophore complex; conditions: in vitro; does not produce changes in chloride flux; cited from earlier work
[9] = test system: cultured mouse spinal cord neurons; conditions: 10-30 μg/mL; cited from earlier work
rat hippocampal slices = conditions: 10-30 μg/mL; cited from earlier work
[10] = test system: dopaminergic and serotonergic neurotransmission; conditions: in vivo microdialysis; cited from earlier work
[11] = 50-200 mg/day in addition to anti-Parkinson Disease drug; cited from earlier work
[12] = one patient; treatment with zonisamide, clonazepam and valpolate; cited from earlier work
[13] = patients; cited from earlier work
[14] = rats; cited from earlier work
[15] = Harmaline-induced tremor in rats (tremor monitoring cage, 8-12 Hz vs 0-15 Hz motion); format: in vivo, Sprague-Dawley rats
Description: Six female Sprague-Dawley rats were treated with i.p. saline and placed in a tremor monitoring cage for 30 minutes of baseline recording. They then received 10 mg/kg harmaline i.p. to induce tremor. Recording of the harmaline-induced tremor began 15 minutes after the harmaline injection and continued for up to 2½ hours.
A transducer connected to the cage floor recorded motion, which was processed by Fourier transform and spectral analysis. Motion at 8-12 Hz (the range in which the tremor occurs) was compared to the full spectrum of motion recorded (0-15 Hz).
To analyze the reduction of tremor caused by treatment agents, a Convuls-1 pressure sensitive transducer system is used. Convuls-1 is designed to objectively quantify convulsive or tremorous activity in small laboratory animals. An unrestrained animal is placed within a chamber that resides upon a sensing platform. […] The static force exerted by the weight of the platform and animal is not recorded. […] Output power is recorded digitally and analyzed for change of frequency and power using the Dataware A/D converted and software.
The data is analyzed in one minute bins. For each bin, the total power of 0-15 Hz and the total power at 8-12 Hz is calculated. The data is then converted into Excel and the ratio of 8-12 Hz/0-15 Hz power is calculated. […]

[16] = delivered intraperitoneally; severity dose dependent; cited from earlier work
[17] = patients at outpatient neurology clinic

For `CC(C)NCC(O)COc1cccc2ccccc12` (stereo not drawn) [propranolol], the “efficacy in ET” value [1] is listed as “proven efficacy in ET”.

In the case of `C[C@]12N[C@H](Cc3ccccc31)c1ccccc12` [MK-801], the “tremorogenic actions of harmaline” value (NMDA receptor) is given as “could block the tremorogenic actions of harmaline”.

With `NS(=O)(=O)Cc1noc2ccccc12` [zonisamide, 1,2-benzisoxazole-3-methanesulfonamide] the patients responding ([2]; Parkinsonian tremor) was “two out of four responded”, the quality of life ([2]; intractable essential tremor responders, 100 mg to 200 mg once daily) was “reported a better quality of life” and the “patients responding by reduction in tremor” value ([2]; intractable essential tremor, 10 patients intolerant to or failed on primidone or propranolol, 100 mg to 200 mg once daily, at least 12 weeks) was “four patients responded by reduction in tremor of greater than 50%”. For the same compound, the patients responding ([2]; mixed tremor (non-essential, secondary to trauma or multiple sclerosis)) was “two out of two patients responded”, the patients responding ([2]; multi-infarct-related (2 or more minor strokes) tremor) was “one out of two patients responded” and the “adverse reactions experienced in treatment” value [2, 17] was “GI upset, somnolence and skin rash”. The “kidney stones and anhydrosis (lack of sweating)” value [2, 17] was “not encountered”, the “threshold for generalized seizures” value [3] was “increase in threshold for generalized seizures” and the “duration of cortical focal seizures” value [4] was “reduction in the duration of cortical focal seizures”. The “interictal spikes and secondarily generalized seizures” value [5] was “suppressed both interictal spikes and the secondarily generalized seizures”, the “interictal spikes and secondarily generalized seizures” value [6] was “suppressed both interictal spikes and the secondarily generalized seizures” and the “effect on voltage-gated sodium channels” value [7] was “blocks voltage-gated sodium channels”. The “effect on voltage-dependent, transient inward calcium currents” value (T-type Ca2+ currents) was “reduces voltage-dependent, transient inward calcium currents”, the “binding to GABA/benzodiazepine receptor ionophore complex” value [8] was “binds to the GABA/benzodiazepine receptor ionophore complex in an allosteric fashion” and the “postsynaptic GABA or glutamate responses” value [9] was “without affecting”. The synaptically-driven electrical activity [9] was “suppresses synaptically-driven electrical activity”, the “neuronal or glial uptake of [3H]-GABA” value (rat hippocampal slices) was “without affecting” and the “dopaminergic and serotonergic neurotransmission” value [10] was “facilitates both dopaminergic and serotonergic neurotransmission”. For the same compound, the symptoms of patients [11] was “showed lessening of symptoms”, the “symptoms of cortical myoclonic tremor” value [12] was “improved” and the “tremor developed after administration” value [13] was “two patients developed resting and postural hand tremor”. For the same compound, the “oral dose effective in anticonvulsant models” value [14] was 20 mg/kg.

For `COc1ccc2c3c([nH]c2c1)C(C)=NCC3` [harmaline], the “stability of tremor-inducing effect” value ([15]; 10 mg/kg harmaline i.p., female Sprague-Dawley rats) is listed as “stable for over two hours”, the “ratio of 8-12 Hz/0-15 Hz power” value ([15]; harmaline-treated rats (control rats 15-30%)) is listed as 60-80% and the “effective dose range for tremor induction” value [16] is listed as 10 to 50 mg/kg.
